A word on the AC50: it is the midpoint of the concentration-response curve, whichever way the signal moves.

The structures appear in SMILES notation. Bounds are passed on as bounds.

In this test the target is Transforming acidic coiled-coil-containing protein 3 (Homo sapiens) (UniProt Q9Y6A5). Kind of test: ARNT/TACC3 interaction disruptors, potency, confirmation, biochemical, AlphaScreen, cherry-picked samples (AID 651703).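 Also: TACC3 partner is the GST-tagged E629A mutant dimer; hits lower the signal meaning they disrupt ARNT binding to TACC3.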 The following applies: AlphaScreen His-ARNT PAS-B / GST-TACC3 binding, luminescence. (Alpha assays give light when donor and acceptor beads are brought close together.)
For the compound `CC1CCN(S(=O)(=O)c2ccc(C(=O)Nc3nnc(C4=COCCO4)o3)cc2)CC1`, the AC50 is 1.21 µM.

Turning to `Oc1ccccc1C(Nc1nccs1)c1ccc2cccnc2c1O` (centres undefined), the AC50 is 4.85 µM.

Take `C[C@@H]1CN([C@H](C)CO)C(=O)c2cc(NC(=O)Nc3ccc(C(F)(F)F)cc3)ccc2O[C@@H](C)CCCCO[C@H]1CN(C)Cc1ccc2c(c1)OCO2`: the AC50 was 64.9 µM.

Turning to `N[C@H]1CC[C@H](CCn2cc(-c3ccccn3)nn2)O[C@@H]1CO`, the AC50 is 1.03 µM.

With `N[C@H]1CC[C@@H](CCn2cc(-c3ccccn3)nn2)O[C@H]1CO`, the AC50 was 1.42 µM.

For the compound `c1ccc(-c2nnc(-c3ccccn3)nc2N2CCC(C3CCCCC3)C2)cc1` (centres undefined), the AC50 is 2.68 µM.

As to `O=C(NCCCn1ccnc1)C(=O)NCC1OCCN1S(=O)(=O)c1cc(F)ccc1F` (centres undefined), the AC50 was 3 µM.

On to `COC(=O)Cc1cc(=O)n(-c2nc3ccccc3[nH]2)[nH]1`, for which the AC50 was 2.68 µM.

Regarding `CCC(=O)NC(c1ccc(N(C)C)cc1)c1c(O)ccc2ccccc12` (centres undefined), the AC50 was 35.5 µM.

Regarding `COCCn1c(-c2ccccc2)cnc1N`, the AC50 is 31.1 µM.

As to `c1ccc(-c2nnc(-c3ccccn3)nc2Nc2cnc3ccccc3n2)cc1`, the AC50 is below 0.5 µM.

For the compound `O=C(CSc1nnc(-c2ccccn2)o1)Nc1ccccc1Cl`, the AC50 is 9.92 µM.

For the compound `CCc1ccc2c(c1)C1(NN=C(c3ccc(C)cc3)S1)C(=O)N2` (centres undefined), the AC50 is 1.52 µM.

On to `Cc1ccc(NC(=O)CNCc2ccccn2)cc1S(=O)(=O)N(C)C`, for which the AC50 is 8.68 µM.

Turning to `O=C(NCCCn1ccnc1)C(=O)NCC1OCCN1S(=O)(=O)c1ccc(F)cc1` (centres undefined), the half-maximal activity concentration (AC50) is 3.5 µM.

`CN(C)S(=O)(=O)c1cccc(NC(=O)CSc2cccc3cccnc23)c1`: the AC50 is 5.76 µM.

On to `CCCN(CCC)c1nc(-c2ccccn2)nc2ccccc12`, for which the concentration at half-maximal activity (AC50) was 15.5 µM.

As for `CCOC(=O)Cc1nnc(NC(=O)c2ncn[nH]2)s1`, the AC50 is 23.2 µM.

On to `CCC(C)c1c(N)n(S(=O)(=O)c2ccc(C)cc2)oc1=O` (centres undefined), for which the AC50 is 44.1 µM.

`O=S(=O)(NC1CCN(Cc2ccc(OCCO)cc2)CC1)c1cccc2cccnc12`: the AC50 is 15.2 µM.

Regarding `CC(C)(C)OC(=O)N1CCN(Cc2ccc(O)c3ncccc23)CC1`, the AC50 was 0.625 µM.

`Cc1cc(C)c(NC(=O)CSc2nnc(-c3ccccn3)n2N)c(Cl)c1`: the AC50 is 37.1 µM.

`Cc1cc(NC(c2cccnc2)c2ccc3cccnc3c2O)no1` (centres undefined): the AC50 is 1.02 µM.

In the case of `O=C(COc1ccc(Cl)cc1)Nc1nnc(-c2ccco2)o1`, the AC50 is 19.6 µM.

As to `O=S(=O)(c1ccccc1)N1C[C@@H]2[C@H](c3ccccc31)[C@H](CO)N2Cc1ccccn1`, the AC50 was 61.5 µM.

As for `COc1ccc(/C=N/Nc2nncn2N)cc1Br`, the concentration at half-maximal activity (AC50) is 25.1 µM.

Turning to `O=C(O)c1cc2c(cn1)[nH]c1ccccc12`, the AC50 is 1.8 µM.

Take `CNc1ccc2nc3ccccc3[n+](C)c2c1`: the AC50 was 29.9 µM.

For the compound `O=C(CSc1ccc(-c2ccccn2)nn1)N1CCCc2ccccc21`, the AC50 was 5.32 µM.

In the case of `N#CC1=C(N)Oc2c(ccc3cccnc23)C1c1cccnc1` (centres undefined), the AC50 is 7.36 µM.

Regarding `O=C(Nc1ccc(F)cc1)c1nc[nH]c1C(=O)O`, the AC50 is 14.3 µM.

Turning to `c1ccc(-c2nnc(-c3ccccn3)nc2NCC2CC2)cc1`, the AC50 is below 0.5 µM.

On to `COc1ccc(CNc2nc(-c3ccccn3)nnc2-c2ccccc2)cc1`, for which the AC50 is 0.611 µM.

On to `c1cncc(-c2nc(NCCCn3ccnc3)c3ccccc3n2)c1`, for which the AC50 is 16.2 µM.

As to `O=S(=O)(c1ccc(Br)cc1)c1nc(-c2ccco2)oc1NCCCn1ccnc1`, the half-maximal activity concentration (AC50) is 33.9 µM.

As for `C/C=C/c1ccc([C@H]2[C@@H](CO)N(Cc3ccccn3)[C@H]2CNC(C)=O)cc1`, the AC50 is 45.9 µM.

As for `COc1cc(CNCc2ccccn2)ccc1OCc1ccc(Cl)cc1`, the AC50 is 60.7 µM.

Take `COc1cc2c(c(OC)c1OC)-c1ccc(O)c(=O)cc1[C@@H](NC(C)=O)CC2`: the AC50 was 40.8 µM.

On to `C[C@]12CC[C@H](O)CC1=CCC1C2CC[C@@]2(C)C1CC[C@@H]2NC(=O)[C@@H](N)Cc1cnc[nH]1` (some centres undefined), for which the AC50 was 28.3 µM.

For `COc1ccc(NC(=O)Nc2ccc3c(c2)CC(=O)N([C@H](C)CO)C[C@H](C)[C@@H](CN(C)Cc2ccc(Oc4ccccc4)cc2)O3)cc1`, the AC50 is 23.6 µM.

Turning to `NC1=NN=C(N2N=C(c3ccco3)CC2(O)C(F)(F)F)n2ncnc2C1` (centres undefined), the half-maximal activity concentration (AC50) is 12 µM.

Regarding `Oc1ccc(Cl)cc1CNc1cccc2cccnc12`, the AC50 was 54.8 µM.

As to `O=C(N[C@H]1CC[C@@H](CCn2cc(-c3ccccn3)nn2)O[C@@H]1CO)c1cccnc1`, the AC50 was 9.19 µM.

`C(=N\Nc1ncnc2nc[nH]c12)/c1cccs1`: the AC50 is 57.8 µM.

On to `O=C(CSc1n[nH]c(=O)[nH]c1=O)N/N=C/c1ccccc1O`, for which the concentration at half-maximal activity (AC50) was 43 µM.

As to `COc1cc(CNCc2ccccn2)ccc1OCC(=O)NC(C)(C)C`, the AC50 was 26.4 µM.

For the compound `O=C(Nc1ccc(N2CCN(C(=O)c3ccccc3F)CC2)cc1)c1ncn[nH]1`, the AC50 is 17.8 µM.

In the case of `Cc1ccccc1NC(=O)CSc1ccc(-c2ccccn2)nn1`, the AC50 is 3.47 µM.

On to `O=C(CN1CC(=O)Oc2ccccc21)OCC(=O)c1ccccc1`, for which the AC50 is 1.1 µM.

On to `NC1=CC(=O)C(=O)c2ccccc21`, for which the concentration at half-maximal activity (AC50) is 38.9 µM.

For `Cc1csc(NC(=O)CSc2ccc(-c3ccccn3)nn2)n1`, the AC50 is 3.14 µM.

As for `C[C@@H]1CCCCO[C@@H](CN(C)C(=O)Nc2cccc3ccccc23)[C@H](C)CN([C@@H](C)CO)C(=O)c2cc(NS(=O)(=O)c3cn(C)cn3)ccc2O1`, the AC50 is 56.4 µM.

Regarding `c1ccc(-c2ccc(CNc3nc(-c4ccccn4)nnc3-c3ccccc3)cc2)cc1`, the AC50 is 1.6 µM.

As to `c1ccc(-c2nnc(-c3ccccn3)nc2NCc2ccccn2)cc1`, the AC50 was below 0.5 µM.

Regarding `O=C(N[C@@H]1CC[C@H](CCn2cc(-c3ccccn3)nn2)O[C@H]1CO)c1ccncc1`, the AC50 is 7.57 µM.

For the compound `COc1ccc(OC)c(NC(=O)CSc2ccc3nnc(-c4ccccn4)n3n2)c1`, the AC50 is 34.3 µM.

On to `CCN(CC)c1ccc(/C=N/NC(=O)c2ccc3nc[nH]c3c2)c(O)c1`, for which the AC50 is 12.5 µM.

On to `Oc1c(C(c2ccc(Cl)cc2)N2CCCC2)cc(Cl)c2cccnc12` (centres undefined), for which the AC50 is 1.36 µM.

`NC(=O)CSc1nnc(-c2ccc(O)cc2)n1Cc1ccco1`: the AC50 was 40.8 µM.

Turning to `Cc1ccccc1CSc1nnc(-c2ccccn2)n1N`, the AC50 is 31.7 µM.

Take `CN1CCN(C(c2ccccn2)c2cc(Cl)c3cccnc3c2O)CC1` (centres undefined): the AC50 was 3.98 µM.

For the compound `c1ccc(-c2nc3ccccc3[nH]2)nc1`, the AC50 is 44 µM.

As for `Cc1nc(Nc2ccc(C(=O)O)cc2)nc(Nc2ccc(C(=O)O)cc2)c1[N+](=O)[O-]`, the half-maximal activity concentration (AC50) was 22.1 µM.

Turning to `C[C@@H]1CN([C@H](C)CO)C(=O)Cc2cc(N(C)C)ccc2O[C@H]1CN(C)Cc1ccc(Oc2ccccc2)cc1`, the AC50 was 27.5 µM.

As to `Cc1ccnc2nc(C(=O)Nc3nc(-c4ccccn4)cs3)nn12`, the AC50 was 2.53 µM.

For the compound `O=C(N[C@H]1CC[C@H](CCn2cc(-c3ccccn3)nn2)O[C@@H]1CO)c1ccc(F)cc1`, the AC50 was 23.1 µM.

As for `O=C(CCS(=O)(=O)c1ccc(F)cc1)Nc1nc(-c2ccccn2)cs1`, the AC50 is 6.22 µM.

Regarding `O=C(N[C@@H]1CC[C@@H](CCn2cc(-c3ccccn3)nn2)O[C@H]1CO)c1ccc(F)cc1`, the AC50 is 10.2 µM.

Consider `COc1ccccc1Nc1nc(N)nc(CN(C)C2CCCCC2)n1`, for which the half-maximal activity concentration (AC50) was 37.7 µM.

These data come from PubChem BioAssay AID651703 (Broad Institute, 2012).
